Experimental data taken from US20210038732A1, “ANTICANCER MICRORNA AND LIPID FORMULATIONS THEREOF” (INTERNA TECHNOLOGIES B.V., priority 2018, published 2021).

Experiments:
[1] = test system: subq human A2058 melanoma tumors; assay: Tumor growth inhibition, different doses and regimens, subq A2058 (Example 4.5); format: in vivo, mice; settings: day 21
Procedure: Six to eight weeks old female BALB/c nude mice (Shanghai Lingchang Bio-Technology Co. Ltd, Shanghai, China) were unilaterally and subcutaneously injected in the right flank with 5×10^6 A2058 tumor cells in PBS (0.1 mL/mouse). At the time of randomization, the TVs ranged between 50.3 and 156.3 mm3 (median 104.8, IQR=91.9-127.1). After randomization, the mice received different miRNA-193a dosing concentrations under different dosing regimen (see Table 10 for dosing scheme). The BRAF-inhibitor vemurafenib was also included. Body weights and TVs (caliper measurements) were determined three times/week. *QDx3,QDx4=one injection per day for 3 or 4 consecutive days; BIW=twice a week, BID=twice daily. Po=per oral.

[2] = test system: K-Ras, MCL1, ENTPD1 (CD39) and TIM-3; assay: PD effect: target gene mRNA in orthotopic 4T1 tumors by qPCR (Example 4.6); format: in vivo, mice; settings: 10 mg/kg iv QDx2; various time points 2-72 h post final dose
Procedure: (§1) To prepare cDNA, first 100 ng total RNA was mixed with Random Hexamers (Qiagen; final concentration 2 μM) in a final volume of 12.5 μl in NFW, denatured for 5 min at 70° C. and immediately cooled on ice. Next, 7.5 μl of a cDNA synthesis mix was added, consisting of 4 μl 5×RT Buffer (Promega), 0.4 μl 25 mM dNTPs (Promega), 1 μl 200 U/μL MMLV RT-enzyme (Promega), 0.5 μL 40 U/μL RNAse Inhibitor (Promega) and 1.6 μL NFW. The following cDNA synthesis protocol was used:
Six to eight weeks old female BALB/c mice (Shanghai Lingchang Bio-Technology Co. Ltd, Shanghai, China) were injected with 3×10^5 4T1 mouse tumor cells in PBS (0.1 mL/mouse) into the mammary fat pad. At the time of randomization, the tumor volumes (TVs) ranged between 252.30-370.45 mm^3. After randomization mice received similar treatments with similar dosing regimen (see Table 11). Mice were sacrificed at pre-determined time points (see Table 11). The tumors from each mouse were collected, snap frozen in liquid nitrogen and then stored at −80° C.
Assessed genes include K-Ras, MCL1, ENTPD1 (CD39) and TIM-3. The role and biological importance for these target genes is briefly discussed in Table 12.

EMT6 = assay: Caspase 3/7 apoptosis assay; format: cell-based; settings: 10 nM, normalized to mock
Procedure: Depending on cancer cell type 3000-6000 cells were seeded in a 96 well plate. After cells attached, they were transfected with different concentrations of miRNA-193a and apoptosis induction was measured at different time points. This assay was performed using Promega kit. 100 uL of caspase reagent was added to 100 uL of media in each well in 96-well plate and incubated for 2 hours in the dark at room temperature. The luminescent signal was read on a luminescent plate reader.
Different biological effects of miRNA-193a-3p have been tested in various cancer cell lines (see Table 13). For this, various cells were treated with miRNA-193a at different concentrations (1, 3, 10 nM). For all experiments controls (untreated, mock and scrambled) were measured. All assays were performed at 24h, 48h and 72h time points. Data shown in Table 13 are the results for miRNA-193a at 10 nM concentration at indicated time points. All the results have been quantified and normalized to the mock control.
miRNA-193a treatment in various cancer cell lines decreased cell viability over time as measured by either an MTS assay or by cell count. It enhanced apoptosis induction over time as measured by a caspase 3/7 apoptosis assay. […] It is of note that due to intrinsic characteristics and gene mutation status of each cell line, performing one method to detect apoptosis is not always ideal for all cell lines.

NT5E and ENTPD1 = NT5E and ENTPD1 expression at mRNA and protein level (RT-PCR, western blot); format: cell-based; settings: 10 nM, variety of cell lines
Procedure: as §1
Approximately 1×10^6 cells were harvested and lysed in immunoprecipitation RIPA lysis buffer and the lysates were blotted onto a PVDF membrane. Membranes were probed overnight with primary antibodies and bound antibodies were visualized using HRP-linked secondary antibodies (Cell-Signalling). The antibodies used for western blot included anti-NT5E (D7F9A) from Cell Signalling Technology, and anti-αTubulin from Santa Cruz. αTubulin was used as a loading control for the western blot experiment.
To assess the impact of miRNA-193a-3p on adenosine generation, the release of free phosphate in A2058 melanoma cells was measured as a read out for ATP, ADP, and AMP dephosphorylation in supernatants. […] Similar results were found by measuring the direct amount of adenosine in cell culture supernatants (FIG. 16B). Further, the role of miRNA-193a in A2058 cancer cell migration was investigated.

[3] = test system: A20 Reticulum cell sarcoma (lymphoma); assay: Primary tumor growth, syngeneic model; format: in vivo, mice; settings: 10 mg/kg i.v BIW x 3-4 weeks, vs PBS
Excerpt: (§2) In this study, the effect of miRNA-193a formulated in diamino lipid nanoparticles was investigated on the primary tumor growth in a panel of twelve syngeneic tumor models. Six to eight weeks mice (Shanghai Lingchang Bio-Technology Co. Ltd, Shanghai, China) were subcutaneously injected with an appropriate number of syngeneic cancer cells, depending on the cancer model (see Table 18). At the time of randomization, tumor volume (TV) was approximately 80-120 mm^3. Body weights and TVs (caliper measurements) were determined 2-3 times/week. After randomization (indicated as day 0) mice received PBS or miR-193a (formulated in diamino lipid nanoparticles) treatments as shown in Table 19. Each tumor model had two groups as depicted in Table 19. Mice were scheduled to be euthanized after two weeks of follow up after a maximum of four weeks of treatment.

RM-1 Prostate cancer = assay: Primary tumor growth, syngeneic model; format: in vivo, mice; settings: 10 mg/kg i.v BIW x 3-4 weeks, vs PBS
Excerpt: as §2

[4] = test system: orthotopic human Hep3b hepatocellular carcinoma tumors; assay: Orthotopic Hep3b model, miRNAs in NOV340, AFP and tumor weight (Example 4.13); format: in vivo, mice; settings: NOV340 nanoparticles, 6 mg/kg iv QODx9 for 3 weeks; day 39
Procedure: Six to eight weeks old female SCID/Beige mice (Shanghai Lingchang Bio-Technology Co. Ltd, Shanghai, China) were orthotopically implanted with a single 2×2×2 mm piece of a subq grown Hep3b tumor into the left liver lobe. Mice were randomized based on day 21 AFP levels. At the time of randomization, the AFP levels (ng/ml plasma) ranged between 401 and 40628 ng/ml (median 2536, IQR=1037-5510). Treatments were with sorafenib, with vehicle control, or with various miRNAs (or scrambled miRNA control) encapsulated in NO340 lipid nanoparticles (Simonson and Das, Mini Rev Med Chem, 2015, 15(6): 467-474, PMID: 25807941). Treatments started on day 22 and continued for three weeks (dosing scheme in Table 21). AFP was measured once a week for 4 weeks, and BW was measured twice a week. At the end of the study tumor weights were also determined. QOD×9=one injection every other day for nine times; BID=twice daily; po=per oral.
After terminal sacrifice on day 39, AFP levels and tumor weights were determined.

For “miRNA-193a: duplex of the miRNA-193a-3p of SEQ ID NO: 218 (mimic, sense) with antisense strand SEQ ID NO: 219; naked in vitro, formulated in vivo (sense UGGGACUUUGUAGGCCAGUUTT; antisense AACUGGCCUACAAAGUCCCAGU; chemistry not given here; listed as Homo sapiens)”, the “Tumor growth (relative tumor volume)” value ([1]; QDx3 6.7 mg/kg iv x3 weeks, nanoparticles according to the invention) was “significant reduction of tumor growth”, the “Tumor growth (relative tumor volume)” value ([1]; the other dosing regimen (10 mg/kg BIW; 5 mg/kg QDx4)) was “mild trend” and the “Target mRNAs expression in tumor” value [2] was “significant reduction”. The “Apoptosis (48/72 h)” value (EMT6) was “↑↑ (Induction > 2x)”, the “Expression of both enzymes involved in adenosine generation pathway (NT5E, ENTPD1)” value (NT5E and ENTPD1) was “downregulated the expression of both enzymes” and the “% TGI by miRNA-193a” value [3] was 54%. The “% TGI by miRNA-193a” value (RM-1 Prostate cancer) was 25% and the “Growth of Hep3b HCC tumors measured by AFP and tumor weight” value [4] was “did not inhibit growth”.
